Assay: susceptibility to oxidation in the presence of free oxygen
Format: physicochemical
Conditions: inferred from redox potential
Text: Another example would be an anthraquinone functionalized with sulfonate groups, such as 2,7 anthraquinone disulfonic acid. The 1,2 benzoquinone disulfonic acid has a higher reduction-oxidation potential than anthraquinone (approximately 0.8V versus 0.2V, as determined against a reversible hydrogen electrode).

## O=C1c2ccc(S(=O)(=O)O)cc2C(=O)c2cc(S(=O)(=O)O)ccc21 [2,7 anthraquinone disulfonic acid]
  oxidation in the presence of oxygen: more susceptible to oxidation in the presence of free oxygen
